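Tested at 5 concentrations; 48 h exposure; 96-well plates; endpoints linearly interpolated, else capped at highest concentration. The concentration for 50% growth inhibition is given as GI50.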 Activity calls are given as the source filed them. Cut-off read from the data, not from the text of the source: active = GI50 up to about 1.1 µM and inactive = higher.
Legend:
Experiment in all cases: NCI-60 cell line screen, 48 h
UACC-62 = tested on: UACC-62
Malme-3M = tested on: Malme-3M
OVCAR-3 = tested on: OVCAR-3
NCI-H23 = tested on: NCI-H23
HCC 2998 = tested on: HCC 2998
A549 = tested on: A549
MOLT-4 = tested on: MOLT-4
NCI-H460 = tested on: NCI-H460
SW-620 = tested on: SW-620
M14 = tested on: M14
OVCAR-8 = tested on: OVCAR-8
LOX IMVI = tested on: LOX IMVI
SK-MEL-2 = tested on: SK-MEL-2
SF-268 = tested on: SF-268
HCT-15 = tested on: HCT-15
K562 = tested on: K562
M19-MEL = tested on: M19-MEL
DLD-1 = tested on: DLD-1
SK-OV-3 = tested on: SK-OV-3
SN12C = tested on: SN12C
SK-MEL-5 = tested on: SK-MEL-5
U-251 = tested on: U-251
KM12 = tested on: KM12
SNB-19 = tested on: SNB-19
HCT-116 = tested on: HCT-116
EKVX = tested on: EKVX
SF-295 = tested on: SF-295
ACHN = tested on: ACHN
A498 = tested on: A498
HT-29 = tested on: HT-29
SNB-78 = tested on: SNB-78
SF-539 = tested on: SF-539
NCI-H226 = tested on: NCI-H226
NCI-H522 = tested on: NCI-H522
LXFL 529 = tested on: LXFL 529
UO-31 = tested on: UO-31
DMS-114 = tested on: DMS-114
SR = tested on: SR
SK-MEL-28 = tested on: SK-MEL-28
CCRF-CEM = tested on: CCRF-CEM
IGROV-1 = tested on: IGROV-1
CAKI-1 = tested on: CAKI-1
RXF 393 = tested on: RXF 393
RPMI-8226 = tested on: RPMI-8226
COLO 205 = tested on: COLO 205
UACC-257 = tested on: UACC-257
786-0 = tested on: 786-0
OVCAR-5 = tested on: OVCAR-5
HOP-92 = tested on: HOP-92
HOP-62 = tested on: HOP-62
OVCAR-4 = tested on: OVCAR-4
PC-3 = tested on: PC-3
MDA-MB-435 = tested on: MDA-MB-435
T47D = tested on: T47D
DU-145 = tested on: DU-145
HL-60 = tested on: HL-60
MDA-N = tested on: MDA-N
NCI/ADR-RES = tested on: NCI/ADR-RES
MCF7 = tested on: MCF7
MDA-MB-231 = tested on: MDA-MB-231
TK-10 = tested on: TK-10
BT-549 = tested on: BT-549
SNB-75 = tested on: SNB-75
Hs-578T = tested on: Hs-578T
XF498 = tested on: XF498
DMS-273 = tested on: DMS-273
KM-20L2 = tested on: KM-20L2

Measured: GI50

Cc1ccc(S(=O)(=O)N/N=C(\C(=O)Nc2cccc([N+](=O)[O-])c2)c2nc3ccc([N+](=O)[O-])cc3nc2O)cc1
inactive: UACC-62 25.4 µM | Malme-3M 77.3 µM | OVCAR-3 > 100 µM | NCI-H23 72.4 µM | HCC 2998 30.1 µM | A549 31.8 µM | MOLT-4 24 µM | NCI-H460 33.5 µM | SW-620 40.6 µM | M14 > 100 µM | OVCAR-8 54.2 µM | LOX IMVI 10.4 µM | SK-MEL-2 > 100 µM | SF-268 48.5 µM | K562 7.38 µM | M19-MEL 43.7 µM | DLD-1 > 100 µM | SK-OV-3 > 100 µM | SN12C > 100 µM | SK-MEL-5 26 µM | U-251 70.3 µM | KM12 37.9 µM | SNB-19 > 100 µM | HCT-116 27.5 µM | EKVX 33.5 µM | SF-295 29 µM | ACHN 13.8 µM | A498 17.1 µM | HT-29 53 µM | SNB-78 > 100 µM | SF-539 24.6 µM | NCI-H226 37.2 µM | NCI-H522 5.66 µM | LXFL 529 18.6 µM | UO-31 9.33 µM | DMS-114 10.2 µM | SR 34 µM | SK-MEL-28 > 100 µM | CCRF-CEM 7.64 µM | IGROV-1 > 100 µM | CAKI-1 23.2 µM | RXF 393 > 100 µM | RPMI-8226 54.7 µM | COLO 205 28.2 µM | UACC-257 59.8 µM | 786-0 61.9 µM | OVCAR-5 46.3 µM | HOP-92 > 100 µM | HOP-62 81.8 µM | OVCAR-4 > 100 µM
16.3 µM: HCT-15

C/C=C(\C)C(O)C(C)C(O)C/C=C(C)/C=C(\C)C/C(C)=C/C/C=C(\C)C(O)C(C)c1ccc(CCC)c(=O)o1 (stereo unspecified)
1.17 µM: HCT-15
inactive: UACC-62 9.86 µM | PC-3 3.5 µM | Malme-3M 9.25 µM | OVCAR-3 12.1 µM | HCC 2998 12.9 µM | A549 3.57 µM | MOLT-4 20 µM | MDA-MB-435 9.12 µM | NCI-H460 5.18 µM | SW-620 12.3 µM | M14 14.9 µM | OVCAR-8 12.9 µM | LOX IMVI 6.68 µM | SK-MEL-2 23.8 µM | SF-268 15.8 µM | T47D 12.1 µM | SK-OV-3 32.2 µM | SN12C 16.6 µM | SK-MEL-5 1.14 µM | U-251 11.4 µM | HL-60 > 100 µM | KM12 7.19 µM | SNB-19 16.1 µM | MDA-N 8.77 µM | NCI/ADR-RES 2.8 µM | MCF7 4.25 µM | EKVX 17.5 µM | A498 14.7 µM | HT-29 1.69 µM | SF-539 14.1 µM | NCI-H226 21.1 µM | NCI-H522 2 µM | UO-31 7.82 µM | SR 18.8 µM | SK-MEL-28 17.1 µM | CCRF-CEM 61.8 µM | IGROV-1 14.6 µM | MDA-MB-231 13.2 µM | CAKI-1 12.9 µM | TK-10 17.5 µM | RXF 393 26.7 µM | BT-549 11.8 µM | RPMI-8226 16.1 µM | COLO 205 3.78 µM | 786-0 20.8 µM | OVCAR-5 19.8 µM | SNB-75 10.8 µM | HOP-92 16.6 µM | HOP-62 16.2 µM | Hs-578T 14.5 µM | OVCAR-4 10 µM
active: NCI-H23 < 0.01 µM | DU-145 < 0.01 µM | K562 0.501 µM | HCT-116 0.544 µM | SF-295 0.349 µM | ACHN < 0.01 µM | UACC-257 0.249 µM

COc1c2ccccc2c(OC)c2nc(C)ccc12
41.3 µM: HCT-15
inactive: UACC-62 > 81.8 µM | PC-3 > 91 µM | Malme-3M > 93.5 µM | OVCAR-3 > 100 µM | NCI-H23 > 100 µM | HCC 2998 > 100 µM | A549 > 100 µM | MOLT-4 40.6 µM | MDA-MB-435 > 100 µM | NCI-H460 39.7 µM | SW-620 > 100 µM | M14 > 100 µM | OVCAR-8 > 100 µM | LOX IMVI 23.7 µM | SK-MEL-2 > 100 µM | SF-268 > 100 µM | T47D > 100 µM | DU-145 > 100 µM | K562 30.6 µM | SK-OV-3 > 100 µM | SN12C > 100 µM | SK-MEL-5 71.4 µM | U-251 42.5 µM | HL-60 26.8 µM | KM12 > 100 µM | SNB-19 > 100 µM | MDA-N > 100 µM | NCI/ADR-RES > 100 µM | MCF7 > 74 µM | HCT-116 > 80.2 µM | EKVX > 100 µM | SF-295 > 100 µM | ACHN > 100 µM | A498 > 100 µM | HT-29 49.3 µM | SF-539 > 100 µM | NCI-H226 > 100 µM | NCI-H522 69.7 µM | UO-31 > 100 µM | SR 30.8 µM | SK-MEL-28 > 100 µM | CCRF-CEM 23.7 µM | IGROV-1 > 100 µM | MDA-MB-231 > 100 µM | CAKI-1 > 94 µM | TK-10 > 100 µM | RXF 393 > 100 µM | BT-549 > 79.1 µM | RPMI-8226 81.8 µM | COLO 205 56.1 µM | UACC-257 > 77.3 µM | 786-0 51.9 µM | OVCAR-5 > 100 µM | SNB-75 > 100 µM | HOP-92 > 100 µM | HOP-62 > 100 µM | Hs-578T > 100 µM | OVCAR-4 > 100 µM

O=c1n(CC2CO2)c2ccccc2n1CC1CS1 (stereo unspecified)
> 100 µM: HCT-15
inactive: UACC-62 49 µM | Malme-3M > 100 µM | OVCAR-3 78.7 µM | HCC 2998 > 100 µM | A549 > 100 µM | MOLT-4 73.3 µM | NCI-H460 > 100 µM | SW-620 > 100 µM | M14 > 100 µM | OVCAR-8 > 100 µM | LOX IMVI 71 µM | SK-MEL-2 > 100 µM | SF-268 91.8 µM | K562 > 100 µM | M19-MEL > 100 µM | SK-OV-3 > 10 µM | SN12C > 100 µM | HL-60 11.1 µM | KM12 > 100 µM | SNB-19 > 100 µM | XF498 > 100 µM | HCT-116 67.3 µM | EKVX > 100 µM | SF-295 > 100 µM | ACHN > 100 µM | HT-29 > 10 µM | SF-539 > 100 µM | NCI-H226 > 100 µM | NCI-H522 > 100 µM | LXFL 529 88.9 µM | UO-31 > 100 µM | DMS-114 77.8 µM | SR 44.7 µM | SK-MEL-28 > 100 µM | CCRF-CEM 63.2 µM | DMS-273 > 100 µM | IGROV-1 > 100 µM | KM-20L2 > 100 µM | CAKI-1 45.1 µM | TK-10 > 100 µM | RXF 393 57 µM | RPMI-8226 36.3 µM | COLO 205 > 100 µM | OVCAR-5 > 100 µM | HOP-92 > 100 µM | HOP-62 > 100 µM | OVCAR-4 > 100 µM

S=C=NCc1ccccc1 [BENZYL ISOTHIOCYANATE]
inactive: UACC-62 3.32 µM | PC-3 4.1 µM | Malme-3M 3.1 µM | OVCAR-3 2.75 µM | NCI-H23 3.81 µM | HCC 2998 8.28 µM | A549 4.49 µM | MOLT-4 1.31 µM | MDA-MB-435 2.16 µM | NCI-H460 6.27 µM | SW-620 2.35 µM | M14 1.67 µM | OVCAR-8 2.62 µM | SK-MEL-2 6.35 µM | SF-268 3.35 µM | T47D 10.4 µM | DU-145 4.13 µM | SK-OV-3 11 µM | SN12C 3.7 µM | SK-MEL-5 2.81 µM | U-251 3.07 µM | HL-60 1.86 µM | SNB-19 4.71 µM | MDA-N 1.18 µM | NCI/ADR-RES 3.43 µM | MCF7 3.23 µM | EKVX 14.6 µM | SF-295 4.82 µM | ACHN 3.99 µM | A498 4.13 µM | HT-29 2.47 µM | SF-539 1.82 µM | NCI-H226 10.1 µM | NCI-H522 1.22 µM | UO-31 2.72 µM | SK-MEL-28 3.08 µM | IGROV-1 2.51 µM | MDA-MB-231 1.8 µM | CAKI-1 1.85 µM | TK-10 4.37 µM | RXF 393 1.62 µM | BT-549 2.32 µM | COLO 205 1.51 µM | UACC-257 3.15 µM | OVCAR-5 10.9 µM | SNB-75 4.27 µM | HOP-92 5.77 µM | HOP-62 3.05 µM | Hs-578T 7.08 µM | OVCAR-4 3.8 µM
3.36 µM: HCT-15
active: LOX IMVI 0.796 µM | K562 0.697 µM | KM12 0.895 µM | HCT-116 0.604 µM | SR 0.794 µM | CCRF-CEM 0.454 µM | RPMI-8226 0.456 µM | 786-0 0.422 µM
